Data taken from the supplement of paper PMC13380429.
± gives the standard deviation of the averaged measurements.

How the values were obtained:
Conditions in all cases: 72 h
[1] = test system: Caco-2; assay: cell viability relative to DMSO; higher = less toxic
[2] = test system: Calu-3; assay: as above
[3] = test system: HepG2; assay: as above
[4] = test system: U2OS; assay: as above
[5] = test system: Vero E6; assay: as above
[6] = test system: Caco-2; assay: relative viability EC50 (midpoint between 100% and the lowest measured viability); higher = less toxic
[7] = test system: Calu-3; assay: as above
[8] = test system: HepG2; assay: as above
[9] = test system: U2OS; assay: as above
[10] = test system: Vero E6; assay: as above
[11] = test system: Caco-2; assay: drug sensitivity score (DSS) for viability; higher = more toxic; extreme values may be limits of the assay
[12] = test system: Calu-3; assay: as above
[13] = test system: HepG2; assay: as above
[14] = test system: U2OS; assay: as above
[15] = test system: Vero E6; assay: as above

Structure (SMILES) | cell viability ([1]; 1 nM) [%] | cell viability ([1]; 10 nM) [%] | cell viability ([1]; 100 nM) [%] | cell viability ([1]; 1000 nM) [%] | cell viability ([1]; 10000 nM) [%] | cell viability ([2]; 1 nM) [%] | cell viability ([2]; 10 nM) [%] | cell viability ([2]; 100 nM) [%] | cell viability ([2]; 1000 nM) [%] | cell viability ([2]; 10000 nM) [%] | cell viability ([3]; 1 nM) [%] | cell viability ([3]; 10 nM) [%] | cell viability ([3]; 100 nM) [%] | cell viability ([3]; 1000 nM) [%] | cell viability ([3]; 10000 nM) [%] | cell viability ([4]; 1 nM) [%] | cell viability ([4]; 10 nM) [%] | cell viability ([4]; 100 nM) [%] | cell viability ([4]; 1000 nM) [%] | cell viability ([4]; 10000 nM) [%] | cell viability ([5]; 1 nM) [%] | cell viability ([5]; 10 nM) [%] | cell viability ([5]; 100 nM) [%] | cell viability ([5]; 1000 nM) [%] | cell viability ([5]; 10000 nM) [%] | relative viability EC50 [6] [µM] | relative viability EC50 [7] [µM] | relative viability EC50 [8] [µM] | relative viability EC50 [9] [µM] | relative viability EC50 [10] [µM] | drug sensitivity score [11] | drug sensitivity score [12] | drug sensitivity score [13] | drug sensitivity score [14] | drug sensitivity score [15]
Cc1c(-c2ccccc2F)[nH]c(N)c1C#N [NS-8] | 96.9 | 90.1 | 105 | 97.5 | 105 | 104 | 101 | 83.6 | 103 | 99.2 | 93.1 | 98.3 | 90.7 | 96.9 | 116 | 98.1 | 95.9 | 99.8 | 93.9 | 103 | 95.2 | 99.1 | 96.2 | 97.7 | 109 | > 10 | > 10 | > 10 | > 10 | > 10 | 0 | 0 | 0 | 0 | 0
CN1CCC(c2c[nH]c3ccc(O)cc23)CC1 | 98.7 | 100 | 95.4 | 100 | 92.1 | 91.9 | 92.8 | 87.9 | 98.7 | 90.3 | 98.5 | 96 | 94.4 | 83.4 | 100 | 98 | 103 | 98.7 | 102 | 95.8 | 105 | 102 | 98.8 | 91.7 | 101 | > 10 | > 10 | > 10 | > 10 | > 10 | 0 | 0 | 0 | 0 | 0
CC(=O)N(CC(O)CO)c1c(I)c(C(=O)NCC(O)CO)c(I)c(C(=O)NCC(O)CO)c1I (stereo not given) [iohexol] | 95.9 ± 4.7 | 101 ± 3 | 101 ± 2.3 | 106 ± 6.4 | 96.3 ± 6 | 104 ± 4.5 | 95.5 ± 2.8 | 95.8 ± 1.3 | 104 ± 15 | 103.7 ± 0.99 | 96 ± 9.3 | 103 ± 4.3 | 99 ± 5.9 | 102 ± 11 | 91.7 ± 3 | 98 ± 4.5 | 99.2 ± 1.8 | 99.4 ± 2 | 99.9 ± 1.1 | 104.5 ± 0.14 | 96.2 ± 3.1 | 101 ± 2.2 | 98.7 ± 7.5 | 99.7 ± 2.1 | 106 ± 6.8 | > 10 | > 10 | > 10 | > 10 | > 10 | 0 | 0 | 0 | 0 | 0
CN(C(=O)CCCOc1ccc2[nH]c(=O)ccc2c1)C1CCCCC1 [cilostamide] | 100 | 94.7 | 99.2 | 96.9 | 90.6 | 92.8 | 92.9 | 94.6 | 85.3 | 105 | 97.2 | 98.7 | 98.8 | 110 | 110 | 102 | 95.5 | 101 | 92.9 | 97 | 91.7 | 98.3 | 89.8 | 98.1 | 104 | > 10 | > 10 | > 10 | > 10 | > 10 | 0 | 0 | 0 | 0 | 0
CCCCCCCCCCCC(=O)O [lauric-acid] | 94.1 | 102 | 111 | 110 | 98.2 | 102 | 108 | 101 | 100 | 97.5 | 105 | 106 | 87.4 | 96 | 94.3 | 102 | 95.3 | 102 | 97.6 | 98.1 | 111 | 113 | 101 | 104 | 93.5 | > 10 | > 10 | > 10 | > 10 | > 10 | 0 | 0 | 0 | 0 | 0
CC(C)(C)c1cc(C=C(C#N)C#N)cc(Br)c1O [AG-1024] | 98.8 | 96.8 | 101 | 93.3 | 77.4 | 104 | 92.4 | 92 | 87.8 | 100 | 102 | 110 | 109 | 119 | 79.8 | 105 | 106 | 102 | 96.4 | 99.2 | 102 | 96.8 | 98.1 | 94.8 | 92.4 | > 10 | > 10 | > 10 | > 10 | > 10 | 1.7 | 0 | 0.3 | 0 | 0
NC(=O)c1ccc(N(C(N)=O)c2c(F)cccc2F)nc1-c1ccc(F)cc1F [VX-702] | 102 | 89.9 | 103 | 85.6 | 88.4 | 101 | 94.4 | 94 | 95.4 | 87.8 | 101 | 109 | 91.9 | 110 | 108 | 97.8 | 96.2 | 96.8 | 92.6 | 94.4 | 92.7 | 105 | 88.5 | 89.1 | 89.1 | > 10 | > 10 | > 10 | > 10 | > 10 | 1.1 | 0 | 0 | 0 | 0.7
CN1C(=O)CCS(=O)(=O)C1c1ccc(Cl)cc1 (stereo not given) [chlormezanone] | 94.4 | 96.2 | 101 | 95.7 | 99.6 | 96 | 102 | 96.6 | 97.6 | 102 | 96.5 | 97.7 | 96.7 | 103 | 103 | 101 | 97.1 | 102 | 95.7 | 103 | 103 | 106 | 104 | 103 | 97.8 | > 10 | > 10 | > 10 | > 10 | > 10 | 0 | 0 | 0 | 0 | 0
C[C@]12C=CC(=O)C=C1CC[C@@H]1[C@@H]2CC[C@]2(C)OC(=O)CC[C@@H]12 [Testolactone] | 94 | 97.1 | 87.1 | 91.1 | 93.8 | 98.5 | 97.3 | 101 | 99.5 | 105 | 66.7 | 103 | 93.1 | 94.1 | 111 | 95.8 | 98.2 | 95.4 | 102 | 91.8 | 98.5 | 91.3 | 94.9 | 88.1 | 96.8 | > 10 | > 10 | > 10 | > 10 | > 10 | 0 | 0 | 0 | 0 | 0
C[C@@]1(c2cc(-c3cncnc3)c(F)cc2F)CCSC(N)=N1 | 98.7 | 92.8 | 92.3 | 95.1 | 99.4 | 98 | 104 | 102 | 101 | 101 | 106 | 112 | 101 | 108 | 97.3 | 102 | 97.5 | 102 | 97.4 | 100 | 105 | 103 | 105 | 101 | 96 | > 10 | > 10 | > 10 | > 10 | > 10 | 0 | 0 | 0 | 0 | 0
C[C@]12CCC(=O)C=C1CC[C@@H]1[C@@H]2[C@@H](O)C[C@@]2(C)[C@H]1CC[C@]2(O)C(=O)COC(=O)CCC(=O)O [hydrocortisone-hemisuccinate] | 104 | 98.7 | 101 | 106 | 111 | 93.6 | 100 | 101 | 101 | 95.9 | 92.9 | 113 | 108 | 96.1 | 92.1 | 103 | 101 | 104 | 100 | 99.6 | 96.3 | 96.8 | 98.3 | 93.5 | 102 | > 10 | > 10 | > 10 | > 10 | > 10 | 0 | 0 | 0 | 0 | 0
O=C(COP(=O)(O)O)[C@@H](O)[C@H](O)[C@H](O)COP(=O)(O)O [fosfructose] | 107 | 118 | 91.9 | 94.7 | 93.5 | 101 | 101 | 99.9 | 98.8 | 97.2 | 108 | 83 | 73.1 | 99.1 | 95.4 | 97.9 | 106 | 106 | 105 | 99.3 | 97.6 | 98.1 | 102 | 102 | 94.7 | > 10 | > 10 | > 10 | > 10 | > 10 | 0 | 0 | 0 | 0 | 0
CC(=O)O[C@]1(C(C)=O)CC[C@H]2[C@@H]3C=C(C)C4=CC(=O)CC[C@@H]4[C@H]3CC[C@@]21C [nomegestrol-acetate] | 88.5 | 97.3 | 102 | 91.6 | 97.4 | 99 | 94.1 | 87.7 | 106 | 108 | 103 | 97.1 | 102 | 106 | 110 | 99.8 | 102 | 102 | 103 | 101 | 100 | 96.3 | 99.3 | 98.6 | 111 | > 10 | > 10 | > 10 | > 10 | > 10 | 0 | 0 | 0 | 0 | 0
CC(C)(O)c1ccn2c(-c3ccc(F)c(-c4ccc(F)cc4C#N)c3)cnc2c1F [TP-003] | 98.7 | 96 | 93.6 | 103 | 95.6 | 106 | 91.9 | 102 | 114 | 92.7 | 98.3 | 96.4 | 97.9 | 103 | 102 | 96.7 | 94.1 | 104 | 96.5 | 99.4 | 97.6 | 99.1 | 92.3 | 103 | 103 | > 10 | > 10 | > 10 | > 10 | > 10 | 0 | 0 | 0 | 0 | 0
